# Reference: patent publication US20030187261A1, “Purine derivatives, process for their preparation and use thereof” (priority 2000, published 2003)
# Like-named read-outs stand apart in the source and are kept apart here.
# Assays:
# B16 melanoma = test: MTT cytotoxicity assay, B16; format: cell-based, mouse; details: 72 hours (TCS50 in the method)
# Text: (§1) One of the parameters used as the basis for colorimetric assays is the metabolic activity of viable cells. For example, a microtiter assay, which uses the tetrazolium salt MTT, is now widely used to quantitate cell proliferation and cytotoxicity. For instance, this assay is used in drug screening programs and in chemosensitivity testing. Because only metabolically active cells cleave tetrazolium salts, these assays detect viable cells exclusively. In the case of MTT assay, yellow soluble tetrazolium salt is reduced to coloured water-insoluble formazan salt. After it is solubilized, the formazan formed can easily and rapidly be quantified in a conventional ELISA plate reader at 570 nm (maximum absorbance). The quantity of reduced formazan corresponds to number of vital cells in the culture. Human T-lymphoblastic leukemia cell line CEM; promyelocytic HL-60 and monocytic U937 leukemias; breast carcinoma cell lines MCF-7, BT549, MDA-MB-231; glioblastoma U87MG cells; cervical carcinoma cells HELA; sarcoma cells U20S and Saos2; hepatocellular carcinoma HepG2; mouse immortalized bone marrow macrophages B2.4 and B10A.4; P388D1 and L1210 leukemia; B16 and B16F10 melanomas were used for routine screening of the compounds according to the invention. The cells were maintained in Nunc/Corning 80 cm^2 plastic tissue culture flasks and cultured in cell culture medium (DMEM with 5 g/l glucose, 2 mM glutamine, 100 U/ml penicillin, 100 μg/ml streptomycin, 10% fetal calf serum and sodium bicarbonate).
# (§2) The cell suspensions that were prepared and diluted according to the particular cell type and the, expected target cell density (2500-30000 cells per well based on cell growth characteristics) were added by pipette (80 μl) into 96-well microtiter plates. Inoculates were allowed a pre-incubation period of 24 hours at 37° C. and 5% CO2 for stabilisation. Four-fold dilutions of the intended test concentration were added at time zero in 20 μl aliquots to the microtiter plate wells. Usually, test compound was evaluated at six 4-fold dilutions. In routine testing, the highest well concentration was 266.7 μM, but it can be the matter of change dependent on the agent. All drug concentrations were examined in duplicates. Incubations of cells with the test compounds lasted for 72 hours at 37° C., in 5% CO2 atmosphere and 100% humidity. At the end of incubation period, the cells were assayed by using the MTT. Ten microliters of the MTT stock solution were pipetted into each well and incubated further for 1-4 hours. After this incubation period, formazan was solubilized by addition of 100 μl/well of 10% SDS in water (pH=5.5) followed by further incubation at 37° C. overnight. The optical density (OD) was measured at 540 nm with the Labsystem iEMS Reader MF (UK). The tumour cell survival (TCS) was calculated using the following equation: TCS=(ODdrug exposed well/mean ODcontrol wells)×100%. The TCS50 value, the drug concentration lethal to 50% of the tumour cells, was calculated from the obtained dose response curves.
# (§3) The cytoxicity of novel compounds was tested on panel of cell lines of different histogenetic and species origin (Table 7). Equal activities were found in all tumour cell lines tested. […] Importantly, this observation distinguishes the purine derivatives of the invention from flavopiridol and related compounds, as their biological activity is dependent on p53 status.
# [1] = tested on: T-lymphoblastic leukemia cell line CEM; test: MTT cytotoxicity assay, CEM; format: cell-based, human; details: 72 hours (TCS50 in the method)
# Text: as §1, §2, §3
# [2] = tested on: PHA-stimulated lymphocytes (PBMC); test: cell number of PHA-stimulated lymphocytes (PBMC), flow cytometry; format: cell-based, human; details: 96 hours, in the presence of IL-2; for CC50: Homo sapiens, Lymphocyte, read-out: Lymphocytes IC50
# Experimental: Human peripheral blood mononuclear cells were isolated by density gradient (Ficoll-Hypaque) (LSM, ICN Biomedicals Inc.). PBMC were stimulated with 5 μg/ml phytohemaglutinin A (PHA) (Sigma) during 24-48 hours in IMDM supplemented with 10% FCS (IMDM/10% FCS) at 37° C. After washing off the PHA, PBMC were incubated with interleukin-2 (IL-2) (10 U/ml) (Genzyme).
# (§4) Cells were plated at 10000 per well in 200 μl IMDM medium and incubated with 0-50 μM of the compounds of the invention (Table 5), by addition of the drugs directly to the culture medium and incubated at 37° C. for 96 hours. Absolute cell number was determined by addition of a known concentration of Fluoresbrite microspheres (FITC) (Polysciences, Inc.). The absolute number of cells per well was calculated as: {(total number of beads added per well)/(number of beads measured)}×(number of measured cells in the gate of interest). All analyses were performed with a FACScan (BD), using CELLQuest software (Becton Dickinson).
# The novel compounds were tested for cytotoxicity on PHA-stimulated lymphocytes (PBMC), as one of the normal counterparts of the cell lines. Cells were grown for 96 hours in the presence of IL-2 and different concentrations of the novel compounds and cell number was counted on the flow cytometer.
# CDC2 = biological target: T1, CDC2 (Homo sapiens, UniProt P06493); test: p34cdc2 (CDC2) kinase inhibition assay, histone H1 substrate; format: biochemical
# T1 construct: made in house; host or cells: Sf9 insect cells, baculovirus co-infection
# Experimental: Cyclin-dependent kinases (p34^cdc2, p33^cdk2, p33^cdk4 and cyclins (cyclin B, E and DI) are produced in Sf9 insect cells coinfected with appropriate baculoviral constructs. The cells are harvested 68-72 hrs post infection in lysis buffer for 30 min on ice and the soluble fraction is recovered by centrifugation at 14.000 g for 10 min. The protein extract is stored at −80° C.
# To carry out experiments on kinetics under linear conditions, the final point test system for kinase activity measurement is used. The kinase is added to the reaction mixture in such a way that linear activity is obtained with respect to the concentration of enzyme and with respect to time.
# Inhibition of p33^cdk4 kinase is determined with Rb-GST (0.2 mg/ml) as the substrate. Kinase activity is determined at 30° C. in kinase buffer.
# Tested compounds are usually dissolved to 100 mM solutions in DMSO, the final concentration of DMSO in reaction mixture never exceeds 1%. The controls contain suitable dilutions of DMSO. After 10 min, the addition of 3×SDS sample buffer stops the incubations. […] The measurement of kinase activity is done using digital image analysis. The kinase activity is expressed as a percentage of maximum activity, the apparent inhibition constants are determined by graphic analysis. Kinase buffer: 50 mM Hepes pH 7.4, 10 mM MgCl21 5 mM EGTA, 10 mM 2-glycerolphosphate,
# [3] = tested on: myeloid leukemia KG1 cell line; test: cell growth of KG1 cell line, flow cytometric cell count; details: read-out: KGI IC50
# Experimental: To determine reversibility of the effects of the new compounds, cells were plated at 10,000 per well and exposed to 0-50 μM of the composed, either continuously for 7 days (control) or only for 6 hours. In the latter case, cells were washed after 6 hours in phosphate-buffered-saline (PBS) (Life Technologies) and reseeded into drug-free medium for 7 days.
# [4] = tested on: T-lymphocyte leukemia Molt3 cell line; test: cell growth of Molt3 cell line, flow cytometric cell count; format: cell-based, human; details: 96 hours of culture
# Experimental: Cell lines: Human leukemic cell lines were obtained from the American Type Culture Collection (ATCC, Rockville, Md., USA). They were cultured in Iscove's Modified Dulbecco's Medium (IMDM) supplemented with 10% heat inactivated fetal calf serum (FCS), 200 U/ml penicillin, 200 μg/ml streptomycin and 1 μg/ml amphotericin B. Cells were cultured in a 5% CO2-95% air fully humidified incubator. For effects on clonogenic output, 1000 cells/well were plated in duplicate in methylcellulose (0.9%), supplemented with 20% FCS and cultured for 14 days.
# as §4
# The response of the myeloid leukemia KG1 and T-lymphocyte leukemia Molt3 cell lines to the cytostatic effect of the novel compounds was determined using the above-mentioned standardized bead suspension that was used to determine the absolute cell number by flow cytometric (FCM) measurement. Cells were grown in the presence of increasing concentrations of the compounds of the invention.
# normal human lymphocytes = test: concanavalin A induced lymphocyte proliferation, [3H]-TdR incorporation; format: cell-based; details: 72 hours, read-out: ED50 (the source's name)
# Experimental: Human heparinized peripheral blood was obtained from healthy volunteers by cubital vein punction. The blood was diluted in PBS (1:3) and mononuclear cells were separated by centrifugation in Ficoll-Hypaque density gradient (Pharmacia, 1.077 g/ml) at 2200 rpm for 30 minutes. Following centrifugation, lymphocytes were washed in PBS and resuspended in cell culture medium (RMPI 1640, 2 mM glutamine, 100 U/ml penicillin, 100 μg/ml streptomycin, 10% fetal calf serum and sodium bicarbonate).
# The cells were diluted at target density of 1100000 cells/ml and were added by pipette (180 μl) into 96/well microtiter plates. Four-fold dilutions of the intended test concentration were added at time zero in 20 μl aliquots to the microtiter plate wells. Usually, test compound was evaluated at six 4-fold dilutions. In routine testing, the highest well concentration was 266.7 μM. All drug concentrations were examined in duplicates. All wells with exception of unstimulated controls were activated with 50 μl of concanavalin A (25 μg/ml). Incubations of cells with test compounds lasted for 72 hours at 37° C., in 5% CO2 atmosphere and 100% humidity. At the end of incubation period, the cells were assayed by using the [^3H]-TdR:
# Cell cultures were incubated with […] (20 μl of stock solution 500 μCi/ml) per well for 6 hours at 37° C. and 5% CO2. The automated cell harvester was used to lyse cells in water and adsorb the DNA onto glass-fiber filters in the format of microtiter plate. The DNA incorporated [^3H]-TdR was retained on the filter while unincorporated material passes through. The filters were dried at room temperature overnight, sealed into a sample bag with 10-12 ml of scintillant. The amount of [^3H]-TdR present in each filter (in cpm) was determined by scintillation counting in a Betaplate liquid scintillation counter. The effective dose of immunosuppressant (ED) was calculated using the following equation: ED=(cpmdrug exposed well/mean cpmcontrol wells)×100%. The EDs50 value, the drug concentration inhibiting proliferation of 50% of lymphocytes, was calculated from the obtained dose response curves.
# To evaluate immunosuppressive activity of substituted adenines, their ability to inhibit polyclonal mitogen induced proliferation of normal human lymphocytes was analyzed (Table 8). […] Effective immunosuppressive dose of new derivatives under in vitro conditions was close to 1-20 μM.
# [5] = Table 5, CDC2 activity in cell free system
# T1 sequence (P06493 whole entry, species assumed): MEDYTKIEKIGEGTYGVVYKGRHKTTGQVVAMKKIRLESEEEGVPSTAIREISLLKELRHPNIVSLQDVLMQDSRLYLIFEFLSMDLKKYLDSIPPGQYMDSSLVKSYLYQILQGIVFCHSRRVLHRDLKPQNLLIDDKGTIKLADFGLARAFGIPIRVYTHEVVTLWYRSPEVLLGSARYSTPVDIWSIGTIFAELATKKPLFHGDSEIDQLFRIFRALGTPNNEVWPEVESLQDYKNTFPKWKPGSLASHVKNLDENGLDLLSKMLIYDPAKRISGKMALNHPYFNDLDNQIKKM
# T1 sequence (P14635 whole entry partner, species assumed): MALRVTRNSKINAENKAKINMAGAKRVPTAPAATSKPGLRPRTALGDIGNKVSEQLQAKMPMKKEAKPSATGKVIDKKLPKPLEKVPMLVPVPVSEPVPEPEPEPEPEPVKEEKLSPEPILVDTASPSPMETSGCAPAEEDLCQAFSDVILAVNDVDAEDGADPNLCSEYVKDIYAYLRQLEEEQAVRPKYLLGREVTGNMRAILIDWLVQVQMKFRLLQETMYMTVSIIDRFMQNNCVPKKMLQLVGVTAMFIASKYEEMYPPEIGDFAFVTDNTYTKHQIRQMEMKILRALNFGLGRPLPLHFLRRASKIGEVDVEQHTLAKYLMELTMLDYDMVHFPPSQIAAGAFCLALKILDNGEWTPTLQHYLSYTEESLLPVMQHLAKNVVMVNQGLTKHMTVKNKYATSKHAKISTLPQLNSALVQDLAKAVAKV
smiles,measurement,setting,value
CCCCCCNc1nc(NCc2ccc(O)c(O)c2)c2ncn(C(C)C)c2n1,IC50,B16 melanoma,21 µM
same,IC50,[1],22 µM
"CC(C)n1cnc2c(SCc3ccccc3)nc(NCCCO)nc21 [P25, 2-(3-hydroxypropylamino)-6-benzylthio-9-isopropylpurine]",CC50,[2],18 ± 1.6 µM
same,IC50,CDC2; [5],> 100 µM
same,IC50,"[3]; Homo sapiens, KG-1, 96 h",42 ± 5 µM
same,IC50,"[4]; Homo sapiens, MOLT-3",19 ± 2 µM
CC(C)n1cnc2c(NC(CO)c3ccccc3)nc(NC[C@@H](C)O)nc21 (stereo partly shown),EC50,normal human lymphocytes,23 µM
same,IC50,B16 melanoma,74.6 µM
same,IC50,[1],70 µM
CC[C@@H](CO)Nc1nc(NC(CO)c2ccccc2)c2ncn(C(C)C)c2n1 (stereo partly shown),EC50,normal human lymphocytes,14 µM
same,IC50,B16 melanoma,24 µM
same,IC50,[1],20 µM
CC[C@@H](CO)Nc1nc(N(C)CCc2ccc(O)c(O)c2)c2ncn(C(C)C)c2n1,EC50,normal human lymphocytes,1.8 µM
same,IC50,B16 melanoma,34 µM
same,IC50,[1],36 µM
CC(C)n1cnc2c(N(C)CCc3ccc(O)c(O)c3)nc(NC[C@H](C)O)nc21,EC50,normal human lymphocytes,8 µM
same,IC50,B16 melanoma,40 µM
same,IC50,[1],43 µM
CC(C)n1cnc2c(N(C)CCc3ccc(O)c(O)c3)nc(NCCO)nc21,EC50,normal human lymphocytes,4 µM
same,IC50,B16 melanoma,26 µM
same,IC50,[1],27 µM
CC(C)n1cnc2c(NCc3ccc(O)c(O)c3)nc(NCCO)nc21,IC50,B16 melanoma,32 µM
same,IC50,[1],35 µM
"CC(C)n1cnc2c(NC(CO)c3ccccc3)nc(SCCO)nc21 (stereo not shown) [P22, 2-(2-hydroxyethylthio)-6-(1-phenyl-2-hydroxyethylamino)-9-isopropylpurine]",CC50,[2],11 ± 1.5 µM
same,IC50,CDC2; [5],3.8 µM
same,IC50,"[3]; Homo sapiens, KG-1, 96 h",13 ± 1.4 µM
same,IC50,"[4]; Homo sapiens, MOLT-3",17 ± 1.7 µM
CC(C)n1cnc2c(NCc3ccc(O)c(O)c3)nc(NC[C@@H](C)O)nc21,IC50,B16 melanoma,41 µM
same,IC50,[1],35 µM
CC[C@H](CO)Nc1nc(NCc2ccc(O)cc2)c2ncn(C(C)C)c2n1 [P19],IC50,[2],6 µM
same,IC50,[3]; 96 hours of culture,11 ± 1.3 µM
same,IC50,[4],15 ± 2 µM
CC(C)n1cnc2c(NC(CO)c3ccccc3)nc(NC[C@H](C)O)nc21 (stereo partly shown),EC50,normal human lymphocytes,27 µM
same,IC50,B16 melanoma,5.6 µM
same,IC50,[1],8 µM
"CC(C)n1cnc2c(NC(CO)c3ccccc3)nc(CCCCCC#N)nc21 (racemic) [P24, 2-(5-cyanopentyl)-6-[(R,S)-(1-phenyl-2-hydroxyethyl)amino]-9-isopropylpurine]",IC50,[2],33 ± 4.4 µM
same,IC50,CDC2; [5],6.3 µM
same,IC50,[3]; 96 hours of culture,42 ± 4.8 µM
same,IC50,[4],42.5 ± 6 µM
CC(C)n1cnc2c(NCc3ccc(O)c(O)c3)nc(NC[C@H](C)O)nc21,IC50,B16 melanoma,10 µM
same,IC50,[1],12 µM
CCCCCCNc1nc(NC(C)c2ccc(O)c(O)c2)c2ncn(C(C)C)c2n1 (stereo not shown) [P17],IC50,[2],18 ± 2.8 µM
same,IC50,CDC2; [5],1 µM
same,IC50,[3]; 96 hours of culture,35.3 ± 5.7 µM
same,IC50,[4],24 ± 6.2 µM
"CC(C)n1cnc2c(NC(CO)c3ccccc3)nc(NCC(O)CO)nc21 [P26, 2-(2,3-dihydroxypropylamino)-6-[(R,S)-(1-phenyl-2-hydroxyethyl)amino]-9-isopropylpurine]",CC50,[2],20 ± 1 µM
same,IC50,CDC2; [5],> 100 µM
same,IC50,"[3]; Homo sapiens, KG-1, 96 h",20 ± 1 µM
same,IC50,"[4]; Homo sapiens, MOLT-3",23.7 ± 3.4 µM
CC(Nc1nc(NCCCO)nc2c1ncn2C(C)C)c1ccc(O)c(O)c1 (stereo not shown) [P18],IC50,[2],14.9 ± 2.9 µM
same,IC50,CDC2; [5],2.6 µM
same,IC50,[3]; 96 hours of culture,18.7 ± 0.3 µM
same,IC50,[4],23 ± 2.8 µM
CC[C@@H](CO)Nc1nc(NCc2ccc(O)c(O)c2)c2ncn(C(C)C)c2n1,IC50,B16 melanoma,53 µM
same,IC50,[1],51 µM
CC(O)CNc1nc(NC(CO)c2ccccc2)c2ncn(C(C)C)c2n1 (stereo not shown),IC50,CDC2; Table 3,0.6 µM
"Cn1cnc2c(NC(CO)c3ccccc3)nc(N3CCOCC3)nc21 (stereo not shown) [P21, 2-(morpholino)-6-(1-phenyl-2-hydroxyethylamino)-9-methylpurine]",CC50,[2],40 ± 7.7 µM
same,IC50,CDC2; [5],6.5 µM
same,IC50,"[3]; Homo sapiens, KG-1, 96 h",48 ± 1.5 µM
same,IC50,"[4]; Homo sapiens, MOLT-3",50 ± 1.3 µM
CC(Nc1nc(NCCCO)nc2c1ncn2C(C)C)c1ccc(O)c(O)c1 (stereo not shown) [P20],IC50,[2],35 ± 7.3 µM
